Experimental data reported in patent US6410564B1, “Naphthyl compounds, intermediates, processes, compositions, and methods” (Eli Lilly and Company, priority 1994, dated 2002).
Like-named read-outs stand apart in the source and are kept apart here.

Columns and labels:
[1] = test system: ovariectomized (OVX) female Sprague Dawley rats; details: rat, in vivo, po, 4 days
Description: In the examples illustrating the methods, a post-menopausal model was used in which effects of different treatments upon circulating lipids were determined.
(§1) Seventy-five day old female Sprague Dawley rats (weight range of 200 to 225 g) were obtained from Charles River Laboratories (Portage, Mich.). The animals were either bilaterally ovariectomized (OVX) or exposed to a Sham surgical procedure at Charles River Laboratories, and then shipped after one week. Upon arrival, they were housed in metal hanging cages in groups of 3 or 4 per cage and had ad libitum access to food (calcium content approximately 0.5%) and water for one week. Room temperature was maintained at 22.2°±1.7° C. with a minimum relative humidity of 40%. The photoperiod in the room was 12 hours light and 12 hours dark.
(§2) Dosing Regimen Tissue Collection. After a one week acclimation period (therefore, two weeks post-OVX) daily dosing with test compound was initiated. 17α-ethynyl estradiol or the test compound were given orally, unless otherwise stated, as a suspension in 1% carboxymethylcellulose or dissolved in 20% cyclodextrin. Animals were dosed daily for 4 days. Following the dosing regimen, animals were weighed and anesthetized with a ketamine: Xylazie (2:1, V:V) mixture and a blood sample was collected by cardiac puncture. The animals were then sacrificed by asphyxiation with CO2, the uterus was removed through a midline incision, and a wet uterine weight was determined.
(§3) Data presented in Table 1 below show comparative results among ovariectomized rats, rats treated with 17α-ethynyl estradiol (EE2; an orally available form of estrogen), and rats treated with certain compounds of the present invention. […] This uterine response to estrogen is well recognized in the art.
(§4) The data presented in the Tables 1 below reflects the response of 5 to 6 rats per treatment.

[2] = test system: Uterine Eosinophil Peroxidase (EPO); details: rat, in vivo, po
Text: as §1, §2
Uterine Eosinophil Peroxidase (EPO) Assay. Uteri were kept at 4° C. until time of enzymatic analysis. The uteri were then homogenized in 50 volumes of 50 mM Tris Buffer (pH −8.0) containing 0.005% Triton X-100. Upon addition of 0.01% hydrogen peroxide and 10 mM O-phenylenediamine (final concentrations) in Tris buffer, increase in absorbance was monitored for one minute at 450 nm. The presence of eosonophils in the uterus is an indication of estrogenic activity of a compound. The maximal velocity of a 15 second interval was determined over the initial, linear portion of the reaction curve.
As is expressed in the below data, estrogenicity also was assessed by evaluating the adverse response to eosinophil infiltration into the uterus.
as §4

[3] = test system: ovariectomized (OVX) female Sprague Dawley rats; assay: Serum cholesterol in OVX rats, 4-day dosing; format: in vivo, rat; details: oral daily for 4 days; for inhibition in vivo at 0.01 mg/kg / inhibition in vivo at 0.1 mg/kg / inhibition in vivo at 1 mg/kg / inhibition in vivo at 10 mg/kg: Rattus norvegicus, po, 96 h, read-out: Serum Cholesterol (% decrease vs. OVX)
Text: as §1, §2
Cholesterol Analysis. Blood samples were allowed to clot at room temperature for 2 hours, and serum was obtained following centrifugation for 10 minutes at 3000 rpm. Serum cholesterol was determined using a Boehringer Mannheim Diagnostics high performance cholesterol assay. Briefly the cholesterol was oxidized to cholest-4-en-3-one and hydrogen peroxide. The hydrogen peroxide was then reacted with phenol and 4-aminophenazone in the pressure of peroxidase to produce a p-quinone imine dye, which was read spectrophotemetrically at 500 nm. Cholesterol concentration was then calculated against a standard curve. The entire assay was automated using a Biomek Automated Workstation.
as §3, §4

[4] = test system: ovariectomized (OVX) female Sprague Dawley rats; assay: Osteoporosis Test Procedure: distal femur metaphysis X-ray image analysis, OVX rats, 35 days; format: in vivo, rat; details: mean ± SEM
Text: as §1
Following the General Preparation Procedure, infra, the rats were treated daily for 35 days (6 rats per treatment group) and sacrificed by carbon dioxide asphyxiation on the 36th day. The 35 day time period was sufficient to allow maximal reduction in bone density, measured as described herein. At the time of sacrifice, the uteri were removed, dissected free of extraneous tissue, and the fluid contents were expelled before determination of wet weight in order to confirm estrogen deficiency associated with complete ovariectomy. […] The uteri were then placed in 10% neutral buffered formalin to allow for subsequent histological analysis.
The right femurs were excised and digitilized x-rays generated and analyzed by an image analysis program (NIH image) at the distal metaphysis. The proximal aspect of the tibiae from these animals were also scanned by quantitative computed tomography.
In accordance with the above procedures, compounds of the present invention and ethynyl estradiol (EE2) in 20% hydroxypropyl β-cyclodextrin were orally administered to test animals. Distal femur metaphysis data presented in Tables 2 and 3 below are the results of formula I compound treatments compared to intact and ovariectomized test animals. Results are reported as the mean ± the standard error of the mean.

[5] = test system: MCF-7 breast adenocarcinoma cells; assay: MCF-7 Proliferation Assay (tritiated thymidine); format: cell-based; details: MCF-7 cells, 48 hours with drug, tritiated thymidine pulse 4 hours
Description: MCF-7 breast adenocarcinoma cells (ATCC HTB 22) were maintained in MEM (minimal essential medium, phenol red-free, Sigma, St. Louis, Mo.) supplimented with 10% fetal bovine serum (FBS) (V/V), L-glutamine ([…]), sodium pyruvate (1 mM), HEPES {(N-[2-hydroxyethyl]piperazine-N′-[2-ethanesulfonic acid]10 mM}, non-essential amino acids and bovine insulin (1 ug/mL) (maintenance medium). Ten days prior to assay, MCF-7 cells were switched to maintenance medium supplemented with 10% dextran coated charcoal stripped fetal bovine serum (DCC-FBS) assay medium) in place of 10% FBS to deplete internal stores of steroids. MCF-7 cells were removed from maintenance flasks using cell dissociation medium (Ca++/Mg++ free HBSS (phenol red-free) supplemented with 10 mM HEPES and 2 mM EDTA). Cells were washed twice with assay medium and adjusted to 80,000 cells/mL. Approximately 100 μL (8,000 cells) were added to flat-bottom microculture wells (Costar 3596) and incubated at 37° C. in a 5% CO2 humidified incubator for 48 hours to allow for cell adherence and equilibration after transfer. Serial dilutions of drugs or DMSO as a diluent control were prepared in assay medium and 50 μL transferred to triplicate microcultures followed by 50 μL assay medium for a final volume of 200 μL. After an additional 48 hours at 37° C. in a 5% CO2 humidified incubator, microcultures were pulsed with tritiated thymidine (1 uCi/well) for 4 hours. Cultures were terminated by freezing at −70° C. for 24 hours followed by thawing and harvesting of microcultures using a Skatron Semiautomatic Cell Harvester. Samples were counted by liquid scintillation using a Wallac BetaPlace β counter. Results in Table 4 below show the IC50 for certain compounds of the present invention.

[6] = female, Sprague Dawley, 0.01 mg/kg, 4 days
[7] = female, Sprague Dawley, 0.1 mg/kg, 4 days
[8] = female, Sprague Dawley, 1 mg/kg, 4 days
[9] = female, Sprague Dawley, 10 mg/kg, 4 days
[10] = Table 2, oral daily 35 days in 20% cyclodextrin, 0.1 mg/kg, OVX control 5.5 ± 0.6, Sham 30.5 ± 4.3
[11] = Table 2, oral daily 35 days in 20% cyclodextrin, 1.0 mg/kg, OVX control 5.5 ± 0.6, Sham 30.5 ± 4.3
[12] = Table 2, oral daily 35 days in 20% cyclodextrin, 10.0 mg/kg, OVX control 5.5 ± 0.6, Sham 30.5 ± 4.3
[13] = Homo sapiens, MCF7, read-out: IC50

| Compound | Uterine Weight (% increase vs. OVX) ([1]; 0.01 mg/kg) [%] | Uterine Weight (% increase vs. OVX) ([1]; 0.1 mg/kg) [%] | Uterine Weight (% increase vs. OVX) ([1]; 1 mg/kg) [%] | Uterine Weight (% increase vs. OVX) ([1]; 10 mg/kg) [%] | Uterine EPO (V. max) [2, 6] | Uterine EPO (V. max) [2, 7] | Uterine EPO (V. max) [2, 8] | Uterine EPO (V. max) [2, 9] | inhibition in vivo at 0.01 mg/kg [3] [%] | inhibition in vivo at 0.1 mg/kg ([3]; dose 0.1 mg/kg) [%] | inhibition in vivo at 1 mg/kg ([3]; dose 1.0 mg/kg) [%] | inhibition in vivo at 10 mg/kg ([3]; dose 10.0 mg/kg) [%] | Distal Femur Metaphysis (X-ray Image Analysis-Gray Score) [4, 10] | Distal Femur Metaphysis (X-ray Image Analysis-Gray Score) [4, 11] | Distal Femur Metaphysis (X-ray Image Analysis-Gray Score) [4, 12] | IC50 [5, 13] [pM] | further results |
| --- | --- | --- | --- | --- | --- | --- | --- | --- | --- | --- | --- | --- | --- | --- | --- | --- | --- |
| COc1ccc(-c2ccc3cc(OC)ccc3c2Cc2ccc(OCCN3CCCCC3)cc2)cc1.Cl [Example 1, [2-(4-Methoxyphenyl)-6-methoxynaphthalen-1-yl][4-[2-(1-piperidinyl)ethoxy]phenyl]methane hydrochloride] | −11.2 | 23.1 | 29.7 | 12.2 | 4.2 | 7.2 | 4.5 | 3.6 | 42.9 | 59.9 | 75 | 63.4 | 24.7 ± 4.2 | 21.7 ± 4.7 | 21.9 ± 3.2 | 100000 |  |
| Cl.Oc1ccc(-c2ccc3cc(O)ccc3c2Cc2ccc(OCCN3CCCCC3)cc2)cc1 [Example 2, [2-(4-Hydroxyphenyl)-6-hydroxynaphthalen-1-yl][4-[2-(1-piperidinyl)ethoxy]phenyl]methane hydrochloride] | 2.4 | 24.6 | 4.1 | 2.6 | 4.5 | 4.5 | 4.8 | 4.2 | 34.2 | 63 | 78.1 | 58.8 |  |  |  | 100 | Distal Femur Metaphysis (X-ray Image Analysis-Gray Score) ([4]; Table 3, oral daily 35 days in 20% cyclodextrin, 0.01 mg/kg, OVX control 7.2 ± 2.2, Sham 44.7 ± 6.4): 19.6 ± 3.3; Distal Femur Metaphysis (X-ray Image Analysis-Gray Score) ([4]; Table 3, oral daily 35 days in 20% cyclodextrin, 0.1 mg/kg, OVX control 7.2 ± 2.2, Sham 44.7 ± 6.4): 25.7 ± 5.9; Distal Femur Metaphysis (X-ray Image Analysis-Gray Score) ([4]; Table 3, oral daily 35 days in 20% cyclodextrin, 1.0 mg/kg, OVX control 7.2 ± 2.2, Sham 44.7 ± 6.4): 21.5 ± 3.2; Distal Femur Metaphysis (X-ray Image Analysis-Gray Score) ([4]; Table 3, oral daily 35 days in 20% cyclodextrin, 10.0 mg/kg, OVX control 7.2 ± 2.2, Sham 44.7 ± 6.4): 30.0 ± 4.5 |
| O=C(Oc1ccc(-c2ccc3cc(OC(=O)c4ccccc4)ccc3c2Cc2ccc(OCCN3CCCCC3)cc2)cc1)c1ccccc1 [Example 3, [2-(4-Benzoyloxyphenyl)-6-benzoyloxynaphthalen-1-yl][4-[2-(1-piperidinyl)ethoxy]phenyl]methane] | 2.0 | 7.1 | 0.0 | 4.5 | 5.4 | 4.2 | 4.2 | 4.8 | 33.3 | 56.7 | 63.6 | 74.7 | 14.5 ± 3.6 | 31.4 ± 5.8 | 26.6 ± 6.3 | 700 |  |
| CCN(CC)CCOc1ccc(Cc2c(-c3ccc(O)cc3)ccc3cc(O)ccc23)cc1 [Example 24, [2-(4-hydroxyphenyl)-6-hydroxynaphthalen-1-yl][4-[2-(1-N,N-diethylamino)ethoxy]phenyl]methane] |  |  |  |  |  |  |  |  |  |  |  |  |  |  |  |  | Uterine EPO (V. max) ([2]; 0.1 mg/kg): 13.8; Uterine EPO (V. max) ([2]; 1 mg/kg): 55.8; Uterine EPO (V. max) ([2]; 10 mg/kg): 36.3; Serum Cholesterol (% decrease vs. OVX) ([3]; dose 0.1 mg/kg): 69.2%; Serum Cholesterol (% decrease vs. OVX) ([3]; dose 1.0 mg/kg): 50.0%; Serum Cholesterol (% decrease vs. OVX) ([3]; dose 10.0 mg/kg): 48.4%; IC50 [5]: Not active |
| Oc1ccc(-c2ccc3cc(O)ccc3c2Cc2ccc(OCCN3CCCCCC3)cc2)cc1 [Example 27, [2-(4-Hydroxyphenyl)-6-hydroxynaphthalen-1-yl][4-[2-(1-hexamethyleneiminyl)ethoxy]phenyl]methane] |  |  |  |  |  |  |  |  |  |  |  |  |  |  |  | 1000 |  |
